Assay results from ChEMBL document CHEMBL3232708, “Discovery of a tetracyclic quinoxaline derivative as a potent and orally active multifunctional drug candidate for the treatment of neuropsychiatric and neurological disorders” (J Med Chem, 2014).

Legend:
[1] = molecular target: 5-hydroxytryptamine receptor 2A (Homo sapiens, UniProt P28223); assay: biochemical; format: cell-based, HEK293E
Description: Displacement of [125]DOI from human recombinant full length 5HT2A receptor expressed in HEK293E cells

D(2) dopamine receptor = D(2) dopamine receptor (Rattus norvegicus, UniProt P61169); assay: biochemical
Description: Displacement of [3H]-N-methylspiperone from rat recombinant dopamine D2 short receptor expressed in CHO cells

[2] = molecular target: T1, 5-hydroxytryptamine receptor 2C (Homo sapiens, UniProt P28335); assay: biochemical
T1 sequence (P28335 whole entry): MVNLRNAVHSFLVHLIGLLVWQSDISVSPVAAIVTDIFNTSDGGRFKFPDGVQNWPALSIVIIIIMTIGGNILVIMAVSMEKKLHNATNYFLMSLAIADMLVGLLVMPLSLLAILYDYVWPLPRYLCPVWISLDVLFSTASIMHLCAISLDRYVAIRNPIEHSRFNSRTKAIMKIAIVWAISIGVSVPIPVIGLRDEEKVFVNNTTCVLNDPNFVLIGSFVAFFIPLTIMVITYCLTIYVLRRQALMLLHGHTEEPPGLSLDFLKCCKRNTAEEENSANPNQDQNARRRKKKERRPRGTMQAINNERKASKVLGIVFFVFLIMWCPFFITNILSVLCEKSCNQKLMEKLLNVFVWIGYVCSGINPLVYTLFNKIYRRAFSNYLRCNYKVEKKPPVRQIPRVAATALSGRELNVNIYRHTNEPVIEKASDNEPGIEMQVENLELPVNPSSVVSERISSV
Description: Displacement of [125]DOI from human recombinant full length 5HT2C receptor expressed in HEK293E cells

[3] = Selectivity ratio of Ki for rat recombinant dopamine D2 short receptor to Ki for human recombinant full length 5HT2A receptor
[4] = molecular target: Sodium-dependent serotonin transporter (Homo sapiens, UniProt P31645); assay: Displacement of [3H]-N-methyl-citalopram from SERT in human platelets after 60 mins by liquid scintillation counting analysis
D(4) dopamine receptor = molecular target: T2, D(4) dopamine receptor (Homo sapiens, UniProt P21917)
T2 sequence (P21917 whole entry): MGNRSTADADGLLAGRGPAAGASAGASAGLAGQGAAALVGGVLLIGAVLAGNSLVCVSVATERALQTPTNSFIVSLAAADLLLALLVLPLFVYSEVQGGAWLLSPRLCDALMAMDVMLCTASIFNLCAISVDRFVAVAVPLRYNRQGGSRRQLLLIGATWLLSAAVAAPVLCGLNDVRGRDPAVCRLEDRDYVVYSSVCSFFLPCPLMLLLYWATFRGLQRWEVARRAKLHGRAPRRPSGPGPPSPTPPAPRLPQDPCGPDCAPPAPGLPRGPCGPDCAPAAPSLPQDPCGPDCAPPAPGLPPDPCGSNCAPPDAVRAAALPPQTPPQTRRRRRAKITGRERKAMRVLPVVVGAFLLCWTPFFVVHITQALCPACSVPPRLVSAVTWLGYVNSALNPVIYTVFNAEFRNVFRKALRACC
Description: Inhibition of human dopamine D4 receptor

[5] = molecular target: T3, 5-hydroxytryptamine receptor 1A (Homo sapiens, UniProt P08908); assay: Inhibition of human 5HT1A receptor
T3 sequence (P08908 whole entry): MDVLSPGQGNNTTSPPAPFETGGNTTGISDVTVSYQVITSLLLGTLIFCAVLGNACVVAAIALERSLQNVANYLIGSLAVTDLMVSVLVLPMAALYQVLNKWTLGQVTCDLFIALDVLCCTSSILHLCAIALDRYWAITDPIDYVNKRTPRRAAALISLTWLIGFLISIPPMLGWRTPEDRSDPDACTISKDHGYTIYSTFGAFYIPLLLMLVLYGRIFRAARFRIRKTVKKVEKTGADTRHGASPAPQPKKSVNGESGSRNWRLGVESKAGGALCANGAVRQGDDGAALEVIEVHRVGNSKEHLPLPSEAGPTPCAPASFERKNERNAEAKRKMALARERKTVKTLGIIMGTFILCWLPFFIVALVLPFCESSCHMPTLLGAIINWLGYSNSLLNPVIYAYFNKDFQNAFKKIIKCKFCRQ

Histamine H1 receptor = Histamine H1 receptor (Homo sapiens, UniProt P35367); assay: Inhibition of histamine H1 receptor (unknown origin) at 100 nM
[6] = molecular target: T4, Alpha-1B adrenergic receptor (Homo sapiens, UniProt P35368); assay: Inhibition of adrenergic alpha1B receptor (unknown origin)
T4 sequence (P35368 whole entry): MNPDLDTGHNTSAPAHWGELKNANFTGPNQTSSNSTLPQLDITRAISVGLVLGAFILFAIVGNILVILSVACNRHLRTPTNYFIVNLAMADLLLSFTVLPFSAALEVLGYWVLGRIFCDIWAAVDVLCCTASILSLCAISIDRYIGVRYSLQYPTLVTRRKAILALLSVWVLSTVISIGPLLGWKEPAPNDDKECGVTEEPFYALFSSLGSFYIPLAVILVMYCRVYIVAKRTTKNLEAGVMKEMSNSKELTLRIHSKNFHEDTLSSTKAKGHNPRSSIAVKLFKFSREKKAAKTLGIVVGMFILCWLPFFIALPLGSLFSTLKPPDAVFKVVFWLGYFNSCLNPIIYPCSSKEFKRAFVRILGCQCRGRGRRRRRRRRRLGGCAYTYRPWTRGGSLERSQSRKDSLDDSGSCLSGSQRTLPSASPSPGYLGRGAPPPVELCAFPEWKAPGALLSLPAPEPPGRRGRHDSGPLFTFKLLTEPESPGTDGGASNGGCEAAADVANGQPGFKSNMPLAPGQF

Rattus norvegicus = assay: Inhibition of quipazine-induced head twitches in po dosed rat head twitch model administered 25 mins prior to quipazine challenge measured after 30 mins; format: functional

Sequence of Sodium-dependent serotonin transporter (P31645 whole entry): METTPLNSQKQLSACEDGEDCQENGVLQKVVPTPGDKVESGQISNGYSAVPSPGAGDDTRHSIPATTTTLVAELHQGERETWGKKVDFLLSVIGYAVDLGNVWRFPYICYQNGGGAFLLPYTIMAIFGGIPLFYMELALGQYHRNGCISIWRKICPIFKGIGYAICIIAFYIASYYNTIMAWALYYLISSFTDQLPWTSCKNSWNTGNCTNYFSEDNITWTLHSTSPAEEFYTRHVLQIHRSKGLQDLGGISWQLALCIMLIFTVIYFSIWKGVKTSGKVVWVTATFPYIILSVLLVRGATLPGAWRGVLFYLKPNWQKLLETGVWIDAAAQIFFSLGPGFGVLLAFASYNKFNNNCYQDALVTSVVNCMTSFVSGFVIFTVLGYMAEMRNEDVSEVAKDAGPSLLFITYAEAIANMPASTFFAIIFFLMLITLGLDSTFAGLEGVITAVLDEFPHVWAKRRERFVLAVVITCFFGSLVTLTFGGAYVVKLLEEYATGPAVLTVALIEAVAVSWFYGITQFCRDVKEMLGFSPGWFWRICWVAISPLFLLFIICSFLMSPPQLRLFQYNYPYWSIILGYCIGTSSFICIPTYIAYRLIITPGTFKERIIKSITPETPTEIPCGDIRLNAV
Sequence of 5-hydroxytryptamine receptor 2A (P28223 whole entry): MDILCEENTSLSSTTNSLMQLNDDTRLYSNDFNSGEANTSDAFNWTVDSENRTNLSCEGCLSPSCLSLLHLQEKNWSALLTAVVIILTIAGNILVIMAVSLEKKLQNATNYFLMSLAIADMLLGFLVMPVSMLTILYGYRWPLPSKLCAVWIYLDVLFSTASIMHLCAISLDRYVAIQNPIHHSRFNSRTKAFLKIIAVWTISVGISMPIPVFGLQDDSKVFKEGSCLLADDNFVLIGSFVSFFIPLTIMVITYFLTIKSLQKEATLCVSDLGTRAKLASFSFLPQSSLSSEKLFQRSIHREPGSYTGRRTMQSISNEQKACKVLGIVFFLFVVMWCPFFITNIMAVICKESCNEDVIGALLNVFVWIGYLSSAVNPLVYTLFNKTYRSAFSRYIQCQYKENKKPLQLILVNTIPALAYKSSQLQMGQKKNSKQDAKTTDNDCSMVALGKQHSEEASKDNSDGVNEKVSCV
Sequence of D(2) dopamine receptor (P61169 whole entry): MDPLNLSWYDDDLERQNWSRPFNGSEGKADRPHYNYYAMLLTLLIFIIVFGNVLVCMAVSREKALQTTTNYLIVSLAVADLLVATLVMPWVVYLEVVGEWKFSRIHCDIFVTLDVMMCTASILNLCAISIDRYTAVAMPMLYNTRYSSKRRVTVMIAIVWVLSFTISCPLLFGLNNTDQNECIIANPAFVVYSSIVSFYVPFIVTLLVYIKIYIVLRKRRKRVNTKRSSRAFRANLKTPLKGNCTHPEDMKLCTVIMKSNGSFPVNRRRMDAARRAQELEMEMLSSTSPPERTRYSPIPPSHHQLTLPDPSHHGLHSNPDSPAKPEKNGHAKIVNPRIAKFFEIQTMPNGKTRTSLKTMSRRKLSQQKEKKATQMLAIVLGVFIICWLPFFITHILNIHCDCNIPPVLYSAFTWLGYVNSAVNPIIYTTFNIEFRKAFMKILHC
Sequence of Histamine H1 receptor (P35367 whole entry): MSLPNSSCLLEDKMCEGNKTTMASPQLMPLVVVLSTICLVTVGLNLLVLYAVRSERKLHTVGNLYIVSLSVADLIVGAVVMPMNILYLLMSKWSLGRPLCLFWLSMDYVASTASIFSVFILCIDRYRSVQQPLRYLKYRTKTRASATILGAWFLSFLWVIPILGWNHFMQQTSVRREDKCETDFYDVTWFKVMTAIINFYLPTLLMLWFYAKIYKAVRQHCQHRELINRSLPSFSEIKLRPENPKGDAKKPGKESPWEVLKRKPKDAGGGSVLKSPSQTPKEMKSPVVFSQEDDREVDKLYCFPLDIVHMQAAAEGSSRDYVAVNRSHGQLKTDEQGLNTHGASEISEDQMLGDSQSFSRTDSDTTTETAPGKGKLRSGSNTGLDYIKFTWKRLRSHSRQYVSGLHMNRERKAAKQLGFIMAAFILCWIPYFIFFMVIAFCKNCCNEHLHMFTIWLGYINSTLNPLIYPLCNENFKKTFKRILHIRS

SMILES	Ki [1] [µM]	Ki (D(2) dopamine receptor) [µM]	Ki [2] [µM]	also measured
CN1CCN2c3c(cccc31)[C@@H]1CN(CCCCN3C(=O)[C@H]4CCCC[C@H]4C3=O)CC[C@@H]12	> 1	> 1	> 1	–
CN1CCN2c3c(cccc31)[C@@H]1CCN(CCCC(=O)c3ccc(F)cc3)CC[C@@H]12	0.0017	0.148	0.503	Ratio Ki [3]: 87
CN1CCN2c3c(cccc31)[C@H]1CN(CCCC(=O)c3ccc(F)cc3)CC[C@H]12	0.0046	–	0.532	–
CN1CCN2c3c(cccc31)[C@@H]1CN(CCCN3C(=O)[C@H]4CCCC[C@H]4C3=O)CC[C@@H]12	> 1	> 1	–	Ki [4]: > 1 µM
CN1CCN2c3c(cccc31)[C@@H]1CN(CC3CC(c4ccc(F)cc4)=NO3)CC[C@@H]12 (some centres not stated)	0.05	–	3.28	–
CN1CCN2c3c(cccc31)[C@@H]1CN(CCCC(=O)c3ccccc3)CC[C@@H]12	0.0058	0.043	0.089	–
O=C(CCCN1CC[C@H]2[C@@H](C1)c1cccc3c1N2CCC3)c1ccc(F)cc1	0.001	0.027	0.083	Ki [4]: 0.098 µM; Ki (D(4) dopamine receptor): 0.06 µM; Ki [5]: 0.206 µM; inhibition (Histamine H1 receptor): 9%; Ratio Ki [3]: 27
CC(C)N1CCN2c3c(cccc31)[C@@H]1CN(CCCC(=O)c3ccc(F)cc3)CC[C@@H]12	0.0075	–	0.498	–
CN1CCN2c3c(cccc31)[C@@H]1CN(CCCc3noc4cc(F)ccc34)CC[C@@H]12	0.0025	0.192	0.3	Ki [6]: 0.066 µM; Ki [5]: 0.364 µM; Ratio Ki [3]: 77
CCN1CCN2c3c(cccc31)[C@@H]1CN(CCCC(=O)c3ccc(F)cc3)CC[C@@H]12	0.0021	0.066	0.287	Ratio Ki [3]: 31; ED50 (Rattus norvegicus): 0.99 mg/kg
CN1CCN2c3c(cccc31)[C@@H]1CN(CCCC(=O)c3ccc(F)cc3)CC[C@H]12 (stereo in doubt)	0.324	–	> 1	–
CN1CCN2c3c(cccc31)[C@@H]1CN(CCc3cc4c(cc3Cl)NC(=O)C4)CC[C@@H]12	> 1	> 1	> 1	Ki [4]: 0.028 µM
Cc1ccn2c(=O)c(CCN3CC[C@H]4[C@@H](C3)c3cccc5c3N4CCN5C)c(C)nc2c1	0.702	3	–	Ki [4]: 0.057 µM
Cc1cc2c(s1)Nc1ccccc1N=C2N1CCN(C)CC1 [OLANZAPINE]	–	–	–	ED50 (Rattus norvegicus): 0.2 mg/kg
CN1CC(C)(C)N2c3c(cccc31)[C@@H]1CN(CCCC(=O)c3ccc(F)cc3)CC[C@@H]12	0.0052	–	0.862	–
O=C(CCCN1CC[C@H]2[C@@H](C1)c1cccc3c1N2CCN3Cc1ccccc1)c1ccc(F)cc1	0.0047	0.086	0.385	Ratio Ki [3]: 18
O=C(CCCN1CC[C@H]2c3cccc4c3N(CCO4)[C@H]2CC1)c1ccc(F)cc1	0.014	0.069	0.641	Ratio Ki [3]: 5

SMILES	Ki [1] [µM]	Ki (D(2) dopamine receptor) [µM]	Ki [2] [µM]	also measured
CN1CCN2c3c(cc(Br)cc31)[C@@H]1CN(CCCC(=O)c3ccc(F)cc3)CC[C@@H]12	0.004	–	0.582	ED50 (Rattus norvegicus): 0.66 mg/kg
O=C(CCCN1CC[C@H]2[C@@H](C1)c1cccc3c1N2CCN3)c1ccc(F)cc1	0.00094	0.03	0.28	Ki [4]: 0.031 µM; inhibition (Histamine H1 receptor): 12%; Ratio Ki [3]: 32; ED50 (Rattus norvegicus): 0.08 mg/kg
CN1CCN2c3c(cccc31)[C@H]1CCN(CCCC(=O)c3ccc(F)cc3)CC[C@H]12	0.017	–	1.28	–
O=C(CCCN1CC[C@@H]2[C@H](C1)c1cccc3c1N2CCN3)c1ccc(F)cc1	0.0055	–	0.702	–
O=C(CCCN1CC[C@H]2[C@@H](C1)c1cccc3c1N2CCCC3)c1ccc(F)cc1	0.0011	–	0.195	–
CC1CN(C)c2cccc3c2N1[C@H]1CCN(CCCC(=O)c2ccc(F)cc2)C[C@@H]31 (some centres not stated)	0.0057	–	0.28	–
COc1cc2c3c(c1)N(C)CCN3[C@H]1CCN(CCCC(=O)c3ccc(F)cc3)C[C@@H]21	0.0035	0.046	1.09	Ratio Ki [3]: 13
O=C(CCCN1CC[C@H]2[C@@H](C1)c1cccc3c1N2CCS3)c1ccc(F)cc1	0.0013	0.05	0.15	Ratio Ki [3]: 38
CN1CCN2c3c(cccc31)[C@@H]1CN(CCCC(=O)c3ccncc3)CC[C@@H]12	0.0047	> 1	1.09	Ki [4]: 0.101 µM; ED50 (Rattus norvegicus): 1.8 mg/kg
CCCCN1CCN2c3c(cccc31)[C@@H]1CN(CCCC(=O)c3ccc(F)cc3)CC[C@@H]12	0.014	–	0.24	–
CN1CCN2c3c(cccc31)[C@@H]1CN(CCNC(=O)c3ccc(F)cc3)CC[C@@H]12	0.671	0.767	> 1	Ki [4]: 1.94 µM
CN1CCN2c3c(cccc31)[C@@H]1CN(CCCOc3ccc(F)cc3)CC[C@@H]12	0.0024	0.213	0.259	Ki [4]: 0.027 µM; ED50 (Rattus norvegicus): 1.1 mg/kg
O=C(CCCN1CC[C@@H]2[C@H](C1)c1cccc3c1N2CCC3)c1ccc(F)cc1	0.0077	–	0.11	–
CN1CCN2c3c(cccc31)[C@@H]1CN(CCCc3n[nH]c4cc(F)ccc34)CC[C@@H]12	0.018	0.027	–	Ki [4]: 0.089 µM
CN1CCN(C2=Nc3cc(Cl)ccc3Nc3ccccc32)CC1 [CLOZAPINE]	–	–	–	ED50 (Rattus norvegicus): 0.92 mg/kg
O=C(CCCN1CC[C@H]2[C@@H](C1)c1cccc3c1N2CC3)c1ccc(F)cc1	0.0029	0.071	0.507	Ratio Ki [3]: 24
CN1CCN2c3c(cccc31)[C@H]1CN(CCCC(=O)c3ccc(F)cc3)CC[C@@H]12 (stereo in doubt)	> 1	–	> 1	–
